The text below walks through data of ChEMBL document CHEMBL1144569 (Bioorg Med Chem, 2007).

Active and inactive are the calls of the source. The calls are words filed in the database; no cut-off is given here.

Test [1] concerns the target Cannabinoid receptor 1 (Homo sapiens) (UniProt P21554). As to the kind of experiment: Antagonist activity at CB1 receptor expressed in NG108-15 cells assessed as abrogation of 2-archidonoylglycerol-induced increase in intracellular free calcium levels. In kind it is functional, cell-based.
Test [2] addresses T1, Cannabinoid receptor 2 (Homo sapiens, UniProt P34972). As to the kind of experiment: Antagonist activity at CB2 receptor expressed in HL60 cells assessed as abrogation of 2-archidonoylglycerol-induced increase in intracellular free calcium levels. In kind it is functional, cell-based. Particulars: HL-60.
For test [3], the target named is T1, Cannabinoid receptor 2. As to the kind of experiment: Agonist activity at CB2 receptor expressed in HL60 cells assessed as increase in intracellular free calcium concentrations. Type of test: functional, cell-based, HL-60.

T1 sequence (P34972 whole entry): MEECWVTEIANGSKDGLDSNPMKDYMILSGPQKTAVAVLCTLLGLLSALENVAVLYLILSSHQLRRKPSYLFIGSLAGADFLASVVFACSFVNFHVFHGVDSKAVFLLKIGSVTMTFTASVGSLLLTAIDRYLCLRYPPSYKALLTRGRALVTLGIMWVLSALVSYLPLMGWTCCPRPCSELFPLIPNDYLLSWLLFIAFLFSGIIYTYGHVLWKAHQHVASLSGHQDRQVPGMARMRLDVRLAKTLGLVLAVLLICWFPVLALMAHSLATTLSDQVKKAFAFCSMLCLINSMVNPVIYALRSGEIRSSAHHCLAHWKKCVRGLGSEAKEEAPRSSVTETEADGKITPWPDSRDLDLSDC
Cannabinoid receptor 1 (Homo sapiens), sequence (P21554 whole entry): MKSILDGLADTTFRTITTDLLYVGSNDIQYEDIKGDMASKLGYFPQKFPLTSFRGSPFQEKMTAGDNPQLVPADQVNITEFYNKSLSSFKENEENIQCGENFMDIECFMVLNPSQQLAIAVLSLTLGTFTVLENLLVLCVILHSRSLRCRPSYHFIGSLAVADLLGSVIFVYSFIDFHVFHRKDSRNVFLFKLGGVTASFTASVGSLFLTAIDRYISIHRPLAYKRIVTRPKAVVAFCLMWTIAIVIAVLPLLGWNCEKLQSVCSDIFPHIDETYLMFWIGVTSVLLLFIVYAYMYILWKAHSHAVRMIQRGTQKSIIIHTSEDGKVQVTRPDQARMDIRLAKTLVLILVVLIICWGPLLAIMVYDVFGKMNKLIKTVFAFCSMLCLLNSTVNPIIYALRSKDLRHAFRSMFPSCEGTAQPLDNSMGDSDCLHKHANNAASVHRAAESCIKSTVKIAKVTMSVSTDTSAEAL

With `CCCCC/C=C\C/C=C\C/C=C\C/C=C\CCCC(=O)OC(CO)CO` [2-ARACHIDONOYLGLYCEROL], the result (in test [1]; on Cannabinoid receptor 2 [2]) was Active. The EC50 on Cannabinoid receptor 2 [3] was 17 nM.

The EC50 is the concentration at which the effect is half-maximal.
